Assay results from US12024506B2, “Compounds” (Oxford University Innovation Limited, priority 2018, dated 2024).
pIC50: −log10 of the molar value.

What was measured:
[1] = tested on: H358 cells (ATCC CRL-5807); assay: Cell viability assay 1 (CellTiter-Glo), H358 cells; assay type: cell-based; settings: Homo sapiens, NCI-H358, 48 h, first value of the cell, read-out: Cell Viability H358 (concentration that decreases cell viability by 50%)
Method in brief: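 H358 cells were grown in RPMI-1640 with 10% FCS and 2 mM L-glutamine, plated at 5000 cells/well and allowed to adhere overnight. Compound was added in 0.5% DMSO final for 48 h at 37° C. Viability was read by CellTiter-Glo luminescence, with the 50% viability-reducing concentration derived from dose-response curves.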

[2] = tested on: DLD1 cells (ATCC CCL-221); assay: Cell viability assay 1 (CellTiter-Glo), DLD1 cells; assay type: cell-based; settings: Homo sapiens, DLD-1 cells, 48 h, second value of the cell, read-out: Cell Viability DLD-1 (concentration that decreases cell viability by 50%)
Method in brief: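 DLD1 cells grown in RPMI-1640 with 10% FCS, 2 mM L-glutamine, 37 °C, 5% CO2, plated overnight then exposed to compound (0.5% DMSO) for 48 h. Viability by CellTiter-Glo luminescence; value is concentration reducing viability by 50% from dose-response curves.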

[3] = biological target: T1, GST-human KRas166 (G12V) GPPNHP (Homo sapiens, UniProt P01116, G12V); assay: KRas small-molecule screening by SPR (Biacore T200); assay type: binding; settings: compound 100 uM, 5% DMSO buffer; immobilised GST-KRas166 (G12V) GPPNHP
T1 construct: made in house; host or cells: E. coli C41(DE3)
Method in brief: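 Biacore T200 screen: compounds at 100 uM final in 5% DMSO buffer (100 mM NaCl, 5 mM MgCl2) over GPPNHP-bound GST-KRas166 G12V captured by anti-GST antibody (10,000–15,000 RU) versus GST-only channel. Expected 1:1 Rmax 63 RU; DMSO solvent correction applied.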

SMILES	pIC50 [1]	pIC50 [2]	SPR Response Units [3] [Response Units]
COc1nc(-c2cccc3c2OCCO3)ccc1Nc1cccc(C(=O)NCC2CCC(=O)NC2)c1 (stereo not drawn) [Example 164, 3-[6-(2,3-Dihydro-benzo[1,4]dioxin-5-yl)-2-methoxy-pyridin-3-ylamino]-N-(6-oxo-piperidin-3-ylmethyl)-benzamide]	4.59	5.32	136
COc1nc(-c2cccc3c2OCCO3)ccc1Nc1cccc(C(=O)NCc2cc[nH]c(=O)c2)c1 [Example 165, 3-[6-(2,3-Dihydro-benzo[1,4]dioxin-5-yl)-2-methoxy-pyridin-3-ylamino]-N-(2-oxo-1,2-dihydro-pyridin-4-ylmethyl)-benzamide]	4.74	4.95	114
COc1nc(-c2cccc3c2OCCO3)ccc1Nc1cccc(C(=O)NCC2CNC(=O)C2)c1 (stereo not drawn) [Example 166, 3-[6-(2,3-Dihydro-benzo[1,4]dioxin-5-yl)-2-methoxy-pyridin-3-ylamino]-N-(5-oxo-pyrrolidin-3-ylmethyl)-benzamide]	4.69	5.08	133
COc1nc(-c2cccc3c2OCCO3)ccc1Nc1cccc(C(=O)NCC2CCN(C(C)=O)CC2)c1 [Example 167, N-(1-Acetyl-piperidin-4-ylmethyl)-3-[6-(2,3-dihydro-benzo[1,4]dioxin-5-yl)-2-methoxy-pyridin-3-ylamino]-benzamide]	4.80	5.46	73
COc1nc(-c2cccc3c2OCCO3)ccc1Nc1ccc(CNCc2cc[nH]c(=O)c2)cc1 [Example 170, 4-({4-[6-(2,3-Dihydro-benzo[1,4]dioxin-5-yl)-2-methoxy-pyridin-3-ylamino]-benzylamino}-methyl)-1H-pyridin-2-one]	4.87	5.70	284
COc1nc(-c2cccc3c2OCCO3)ccc1Nc1ccc(CNCC2CCC(=O)NC2)cc1 (stereo not drawn) [Example 172, 5-({4-[6-(2,3-Dihydro-benzo[1,4]dioxin-5-yl)-2-methoxy-pyridin-3-ylamino]-benzylamino}-methyl)-piperidin-2-one]	4.63	5.33	174
COc1nc(-c2cccc3c2OCCO3)ccc1Nc1ccc(C(=O)NCc2cccnc2)cc1 [Example 175, 4-[6-(2,3-Dihydro-benzo[1,4]dioxin-5-yl)-2-methoxy-pyridin-3-ylamino]-N-pyridin-3-ylmethyl-benzamide]	4.80	5.09	63
COc1nc(-c2cccc3c2OCCO3)ccc1Nc1cccc(C(=O)NCC2CCNCC2)c1 [Example 180, 3-[6-(2,3-Dihydro-benzo[1,4]dioxin-5-yl)-2-methoxy-pyridin-3-ylamino]-N-piperidin-4-ylmethyl-benzamide]	5.07	6.19	197
COc1nc(-c2cccc3c2OCCO3)ccc1Nc1cccc(C(=O)NCC2CCNC(=O)C2)c1 (stereo not drawn) [Example 182, 3-[6-(2,3-Dihydro-benzo[1,4]dioxin-5-yl)-2-methoxy-pyridin-3-ylamino]-N-(2-oxo-piperidin-4-ylmethyl)-benzamide]	4.57	4.95	198
COc1nc(-c2cccc3c2OCCO3)ccc1Nc1ccc(CNCC2CCN(Cc3ccccc3)CC2)cc1 [Example 187, (4-{[(1-Benzyl-piperidin-4-ylmethyl)-amino]-methyl}-phenyl)-[6-(2,3-dihydro-benzo[1,4]dioxin-5-yl)-2-methoxy-pyridin-3-yl]-amine]	4.59	5.66	916
COc1nc(-c2cccc3c2OCCO3)ccc1Nc1ccc(CNCc2cccc(F)n2)cc1 [Example 188, [6-(2,3-Dihydro-benzo[1,4]dioxin-5-yl)-2-methoxy-pyridin-3-yl]-(4-{[(6-fluoro-pyridin-2-ylmethyl)-amino]-methyl}-phenyl)-amine]	4.56	4.31	103

These reach a higher pIC50 [1]. Values come first.

pIC50 [1]	pIC50 [2]	SPR Response Units [3] [Response Units]	SMILES
5.18	6.85	30	COc1nc(-c2cccc3c2OCCO3)ccc1Nc1ccc(CNCC2CCN(C(=O)OC(C)(C)C)CC2)cc1 [Example 171, 4-({4-[6-(2,3-Dihydro-benzo[1,4]dioxin-5-yl)-2-methoxy-pyridin-3-ylamino]-benzylamino}-methyl)-piperidine-1-carboxylic acid tert-butyl ester]
5.13	5.40	147	COc1nc(-c2cccc3c2OCCO3)ccc1Nc1ccc(CNCC2CNC(=O)C2)cc1 (stereo not drawn) [Example 173, 4-({4-[6-(2,3-Dihydro-benzo[1,4]dioxin-5-yl)-2-methoxy-pyridin-3-ylamino]-benzylamino}-methyl)-pyrrolidin-2-one]
5.74	6.57	150	COc1nc(-c2cccc3c2OCCO3)ccc1Nc1ccc(CNCC2CCNCC2)cc1 [Example 178, [6-(2,3-Dihydro-benzo[1,4]dioxin-5-yl)-2-methoxy-pyridin-3-yl]-(4-{[(piperidin-4-ylmethyl)-amino]-methyl}-phenyl)-amine]
5.12	6.41	162	COc1nc(-c2cccc3c2OCCO3)ccc1Nc1ccc(C(=O)NCC2CCNCC2)cc1 [Example 179, 4-[6-(2,3-Dihydro-benzo[1,4]dioxin-5-yl)-2-methoxy-pyridin-3-ylamino]-N-piperidin-4-ylmethyl-benzamide]
5.37	5.74	149	COc1nc(-c2cccc3c2OCCO3)ccc1Nc1cccc(C(=O)NCC2CCN(Cc3ccccc3)CC2)c1 [Example 181, N-(1-Benzyl-piperidin-4-ylmethyl)-3-[6-(2,3-dihydro-benzo[1,4]dioxin-5-yl)-2-methoxy-pyridin-3-ylamino]-benzamide]
5.44	5.92	10	NCc1ccc(C(=O)N2CCN(c3cccc4c3OCCO4)CC2)cc1 [Example 184, (4-Aminomethyl-phenyl)-[4-(2,3-dihydro-benzo[1,4]dioxin-5-yl)-piperazin-1-yl]-methanone]
5.62	5.92	122	COc1nc(-c2cccc3c2OCCO3)ccc1Nc1ccc(C(=O)NCC2CCN(Cc3ccccc3)CC2)cc1 [Example 185, N-(1-Benzyl-piperidin-4-ylmethyl)-4-[6-(2,3-dihydro-benzo[1,4]dioxin-5-yl)-2-methoxy-pyridin-3-ylamino]-benzamide]
5.62	6.52	636	COc1nc(-c2cccc3c2OCCO3)ccc1Nc1ccc(CNCC2CCN(C)CC2)cc1 [Example 186, [6-(2,3-Dihydro-benzo[1,4]dioxin-5-yl)-2-methoxy-pyridin-3-yl]-(4-{[(1-methyl-piperidin-4-ylmethyl)-amino]-methyl}-phenyl)-amine]
